From patent US12495798B2, “Nicotinamide compound and herbicidal composition comprising compound” (KOREA RESEARCH INSTITUTE OF CHEMICAL TECHNOLOGY, priority 2019, dated 2025)

Columns and labels:
Type in all cases: in vivo
[1] = tested on: crabgrass; assay: Herbicidal activity test against upland field weeds (foliar treatment test); conditions: Digitaria sanguinalis, 50 g ai/ha, scale 0-100
In short: (§1)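 Visual 0–100 control ratings relative to untreated plants, taken 14 (or 21) days after spraying foliage at 50 or 75 g a.i./ha. Spray solution: 50% acetone with 0.1% Tween-20; plants kept in greenhouse at 30±5 °C, 14 h light/10 h dark.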

[2] = tested on: indian jointvetch; assay: as above; conditions: 50 g ai/ha, scale 0-100
In short: as §1

[3] = tested on: velvetleaf; assay: as above; set-up: key to Foliar treatment herbicidal activity, velvet leaf: 0 (no control); 100 (complete control); conditions: 50 g ai/ha; for pest or weed control at 50 g/ha: Abutilon theophrasti, scale 0-100, read-out: Foliar treatment herbicidal activity, velvet leaf
In short: as §1

[4] = tested on: cocklebur; assay: as above; set-up: key to Foliar treatment herbicidal activity, Cocklebur: 0 (no control); 100 (complete control); conditions: 50 g ai/ha, scale 0-100; for pest or weed control at 50 g/ha: Xanthium strumarium
In short: as §1

[5] = tested on: bindweed; assay: as above; set-up: key to Foliar treatment herbicidal activity, Bindweed: 0 (no control); 100 (complete control); conditions: 50 g ai/ha, scale 0-100
In short: as §1

[6] = tested on: barnyard grass; assay: Herbicidal activity test against upland field weeds (soil treatment test); set-up: key to Soil treatment herbicidal activity, barnyard grass: 0 (no control); 100 (complete control); conditions: 50 g ai/ha, scale 0 (no control) to 100 (complete control); for pest or weed control at 50 g/ha: Echinochloa crus-galli
In short: (§2)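 Weed control scored visually on a 0 (none) to 100 (complete) scale versus untreated pots at 14 or 21 days in greenhouse (30±5 °C, 14 h light). Test compounds, 50 or 75 g a.i./ha in 50% acetone/0.1% Tween-20, hand-sprayed onto soil one day post-sowing.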

[7] = tested on: quack grass; assay: as above; set-up: key to Soil treatment herbicidal activity, quack grass: 0 (no control); 100 (complete control); conditions: 50 g ai/ha, scale 0 (no control) to 100 (complete control)
In short: as §2

[8] = tested on: bindweed; assay: as above; set-up: key to Soil treatment herbicidal activity, Bindweed: 0 (no control); 100 (complete control); conditions: 50 g ai/ha, scale 0 (no control) to 100 (complete control)
In short: as §2

[9] = tested on: corn; assay: Phytotoxicity test for upland field crops (foliar treatment test); set-up: key: 0 (no harm); 9 (complete withered)
In short: (§3)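 Spray-booth foliar treatment of greenhouse-grown crops at 19˜300 g a.i./ha. Visual crop injury was scored 0–9 against untreated plants at 7 and 14 days.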

[10] = tested on: cotton; assay: as above; set-up: key: 0 (no harm); 9 (complete withered)
In short: as §3

[11] = tested on: rice; assay: as above; set-up: key: 0 (no harm); 9 (complete withered)
In short: as §3

[12] = tested on: soybean; assay: as above; set-up: key: 0 (no harm); 9 (complete withered)
In short: as §3

[13] = tested on: wheat; assay: as above; set-up: key: 0 (no harm); 9 (complete withered)
In short: as §3

[14] = 50 g ai/ha, Corn (7 days after treatment)
[15] = 50 g ai/ha, Corn (14 days after treatment)
[16] = 100 g ai/ha, Corn (7 days after treatment)
[17] = 100 g ai/ha, Corn (14 days after treatment)
[18] = 50 g ai/ha, Cotton (7 days after treatment)
[19] = 50 g ai/ha, Cotton (14 days after treatment)
[20] = 100 g ai/ha, Cotton (7 days after treatment)
[21] = 100 g ai/ha, Cotton (14 days after treatment)
[22] = 50 g ai/ha, Rice (7 days after treatment)
[23] = 50 g ai/ha, Rice (14 days after treatment)
[24] = 100 g ai/ha, Rice (7 days after treatment)
[25] = 100 g ai/ha, Rice (14 days after treatment)
[26] = 50 g ai/ha, Soybean (7 days after treatment)
[27] = 50 g ai/ha, Soybean (14 days after treatment)
[28] = 100 g ai/ha, Soybean (7 days after treatment)
[29] = 100 g ai/ha, Soybean (14 days after treatment)
[30] = 50 g ai/ha, Wheat (7 days after treatment)
[31] = 50 g ai/ha, Wheat (14 days after treatment)
[32] = 100 g ai/ha, Wheat (7 days after treatment)
[33] = 100 g ai/ha, Wheat (14 days after treatment)

## Cn1nnc(COCc2nc(C(F)(F)F)ccc2C(=O)Nc2nnnn2C)n1 [Compound No. 2-59, N-(1-methyl-1H-tetrazol-5-yl)-2-(((2-methyl-2H-tetrazol-5-yl)methoxy)methyl)-6-(trifluoromethyl)nicotinamide]
[1]
  pest or weed control at 50 g/ha: 98%
[2]
  pest or weed control at 50 g/ha: 98%
[3]
  pest or weed control at 50 g/ha: 98%
[4]
  pest or weed control at 50 g/ha: 98%
[5]
  pest or weed control at 50 g/ha: 90%
[6]
  Soil treatment herbicidal activity, barnyard grass: 100
[7]
  pest or weed control at 50 g/ha: 20%
[8]
  pest or weed control at 50 g/ha: 90%
[9]; [14]
  Foliar treatment phytotoxicity, Corn: 0
[9]; [15]
  Foliar treatment phytotoxicity, Corn: 2
[9]; [16]
  Foliar treatment phytotoxicity, Corn: 3
[9]; [17]
  Foliar treatment phytotoxicity, Corn: 4
[10]; [18]
  Foliar treatment phytotoxicity, Cotton: 3
[10]; [19]
  Foliar treatment phytotoxicity, Cotton: 8
[10]; [20]
  Foliar treatment phytotoxicity, Cotton: 3
[10]; [21]
  Foliar treatment phytotoxicity, Cotton: 9
[11]; [22]
  Foliar treatment phytotoxicity, Rice: 3
[11]; [23]
  Foliar treatment phytotoxicity, Rice: 4
[11]; [24]
  Foliar treatment phytotoxicity, Rice: 3
[11]; [25]
  Foliar treatment phytotoxicity, Rice: 6
[12]; [26]
  Foliar treatment phytotoxicity, Soybean: 5
[12]; [27]
  Foliar treatment phytotoxicity, Soybean: 7
[12]; [28]
  Foliar treatment phytotoxicity, Soybean: 5
[12]; [29]
  Foliar treatment phytotoxicity, Soybean: 7
[13]; [30]
  Foliar treatment phytotoxicity, Wheat: 0
[13]; [31]
  Foliar treatment phytotoxicity, Wheat: 0
[13]; [32]
  Foliar treatment phytotoxicity, Wheat: 0
[13]; [33]
  Foliar treatment phytotoxicity, Wheat: 0

## Cn1nnc(COCc2nc(C(F)(F)F)ccc2C(=O)N(C(=O)c2ccccc2)c2nnnn2C)n1 [Compound No. 2-68, N-benzoyl-N-(1-methyl-1H-tetrazol-5-yl)-2-(((2-methyl-2H-tetrazol-5-yl)methoxy)methyl)-6-(trifluoromethyl)nicotinamide]
[1]
  pest or weed control at 50 g/ha: 98%
[2]
  pest or weed control at 50 g/ha: 98%
[3]; scale 0-100
  Foliar treatment herbicidal activity, velvet leaf: 100
[4]
  Foliar treatment herbicidal activity, Cocklebur: 100
[5]
  Foliar treatment herbicidal activity, Bindweed: 100
[6]
  pest or weed control at 50 g/ha: 98%
[7]
  Soil treatment herbicidal activity, quack grass: 0
[8]
  Soil treatment herbicidal activity, Bindweed: 0
[9]; [14]
  Foliar treatment phytotoxicity, Corn: 4
[9]; [15]
  Foliar treatment phytotoxicity, Corn: 4
[9]; [16]
  Foliar treatment phytotoxicity, Corn: 6
[9]; [17]
  Foliar treatment phytotoxicity, Corn: 6
[10]; [18]
  Foliar treatment phytotoxicity, Cotton: 4
[10]; [19]
  Foliar treatment phytotoxicity, Cotton: 9
[10]; [20]
  Foliar treatment phytotoxicity, Cotton: 5
[10]; [21]
  Foliar treatment phytotoxicity, Cotton: 9
[11]; [22]
  Foliar treatment phytotoxicity, Rice: 6
[11]; [23]
  Foliar treatment phytotoxicity, Rice: 5
[11]; [24]
  Foliar treatment phytotoxicity, Rice: 6
[11]; [25]
  Foliar treatment phytotoxicity, Rice: 8
[12]; [26]
  Foliar treatment phytotoxicity, Soybean: 5
[12]; [27]
  Foliar treatment phytotoxicity, Soybean: 5
[12]; [28]
  Foliar treatment phytotoxicity, Soybean: 6
[12]; [29]
  Foliar treatment phytotoxicity, Soybean: 7
[13]; [30]
  Foliar treatment phytotoxicity, Wheat: 0
[13]; [31]
  Foliar treatment phytotoxicity, Wheat: 0
[13]; [32]
  Foliar treatment phytotoxicity, Wheat: 1
[13]; [33]
  Foliar treatment phytotoxicity, Wheat: 0

## Cn1nnc(COCc2nc(C(F)(F)F)ccc2C(=O)N(c2nnnn2C)S(C)(=O)=O)n1 [Compound No. 2-69, N-(1-methyl-1H-tetrazol-5-yl)-2-(((2-methyl-2H-tetrazol-5-yl)methoxy)methyl)-N-(methylsulfonyl)-6-(trifluoromethyl)nicotinamide]
[1]
  pest or weed control at 50 g/ha: 70%
[2]
  pest or weed control at 50 g/ha: 80%
[3]
  pest or weed control at 50 g/ha: 80%
[4]
  pest or weed control at 50 g/ha: 95%
[5]
  pest or weed control at 50 g/ha: 40%
[6]
  pest or weed control at 50 g/ha: 100%
[7]
  Soil treatment herbicidal activity, quack grass: 0
[8]
  pest or weed control at 50 g/ha: 70%
[9]; [14]
  Foliar treatment phytotoxicity, Corn: 4
[9]; [15]
  Foliar treatment phytotoxicity, Corn: 3
[10]; [18]
  Foliar treatment phytotoxicity, Cotton: 4
[10]; [19]
  Foliar treatment phytotoxicity, Cotton: 9
[11]; [22]
  Foliar treatment phytotoxicity, Rice: 6
[11]; [23]
  Foliar treatment phytotoxicity, Rice: 7
[12]; [26]
  Foliar treatment phytotoxicity, Soybean: 6
[12]; [27]
  Foliar treatment phytotoxicity, Soybean: 6
[13]; [30]
  Foliar treatment phytotoxicity, Wheat: 0
[13]; [31]
  Foliar treatment phytotoxicity, Wheat: 0

## Cn1nnc(COCc2nc(C(F)(F)Cl)ccc2C(=O)Nc2nnnn2C)n1 [Compound No. 2-78, 6-(chlorodifluoromethyl)-N-(1-methyl-1H-tetrazol-5-yl)-2-(((2-methyl-2H-tetrazol-5-yl)methoxy)methyl)nicotinamide]
[1]
  pest or weed control at 50 g/ha: 70%
[2]
  pest or weed control at 50 g/ha: 80%
[3]
  pest or weed control at 50 g/ha: 60%
[4]
  pest or weed control at 50 g/ha: 60%
[5]
  pest or weed control at 50 g/ha: 40%
[6]
  Soil treatment herbicidal activity, barnyard grass: 100
[7]
  Soil treatment herbicidal activity, quack grass: 0
[8]
  pest or weed control at 50 g/ha: 40%
[9]; [14]
  Foliar treatment phytotoxicity, Corn: 2
[9]; [15]
  Foliar treatment phytotoxicity, Corn: 1
[9]; [16]
  Foliar treatment phytotoxicity, Corn: 3
[9]; [17]
  Foliar treatment phytotoxicity, Corn: 1
[10]; [18]
  Foliar treatment phytotoxicity, Cotton: 5
[10]; [19]
  Foliar treatment phytotoxicity, Cotton: 9
[10]; [20]
  Foliar treatment phytotoxicity, Cotton: 6
[10]; [21]
  Foliar treatment phytotoxicity, Cotton: 9
[11]; [22]
  Foliar treatment phytotoxicity, Rice: 5
[11]; [23]
  Foliar treatment phytotoxicity, Rice: 4
[11]; [24]
  Foliar treatment phytotoxicity, Rice: 6
[11]; [25]
  Foliar treatment phytotoxicity, Rice: 5
[12]; [26]
  Foliar treatment phytotoxicity, Soybean: 5
[12]; [27]
  Foliar treatment phytotoxicity, Soybean: 5
[12]; [28]
  Foliar treatment phytotoxicity, Soybean: 6
[12]; [29]
  Foliar treatment phytotoxicity, Soybean: 6
[13]; [30]
  Foliar treatment phytotoxicity, Wheat: 0
[13]; [31]
  Foliar treatment phytotoxicity, Wheat: 0
[13]; [32]
  Foliar treatment phytotoxicity, Wheat: 0
[13]; [33]
  Foliar treatment phytotoxicity, Wheat: 0

## Cn1nnc(COCc2nc(C(F)(F)C(F)(F)F)ccc2C(=O)Nc2nnnn2C)n1 [Compound No. 2-81, N-(1-methyl-1H-tetrazol-5-yl)-2-(((2-methyl-2H-tetrazol-5-yl)methoxy)methyl)-6-(perfluoroethyl)nicotinamide]
[1]
  pest or weed control at 50 g/ha: 70%
[2]
  pest or weed control at 50 g/ha: 80%
[3]
  pest or weed control at 50 g/ha: 90%
[4]
  pest or weed control at 50 g/ha: 95%
[5]
  pest or weed control at 50 g/ha: 60%
[6]
  Soil treatment herbicidal activity, barnyard grass: 100
[7]
  Soil treatment herbicidal activity, quack grass: 0
[8]
  pest or weed control at 50 g/ha: 70%
[9]; [14]
  Foliar treatment phytotoxicity, Corn: 2
[9]; [15]
  Foliar treatment phytotoxicity, Corn: 1
[9]; [16]
  Foliar treatment phytotoxicity, Corn: 2
[9]; [17]
  Foliar treatment phytotoxicity, Corn: 1
[10]; [18]
  Foliar treatment phytotoxicity, Cotton: 4
[10]; [19]
  Foliar treatment phytotoxicity, Cotton: 9
[10]; [20]
  Foliar treatment phytotoxicity, Cotton: 4
[10]; [21]
  Foliar treatment phytotoxicity, Cotton: 9
[11]; [22]
  Foliar treatment phytotoxicity, Rice: 5
[11]; [23]
  Foliar treatment phytotoxicity, Rice: 3
[11]; [24]
  Foliar treatment phytotoxicity, Rice: 6
[11]; [25]
  Foliar treatment phytotoxicity, Rice: 5
[12]; [26]
  Foliar treatment phytotoxicity, Soybean: 5
[12]; [27]
  Foliar treatment phytotoxicity, Soybean: 6
[12]; [28]
  Foliar treatment phytotoxicity, Soybean: 6
[12]; [29]
  Foliar treatment phytotoxicity, Soybean: 7
[13]; [30]
  Foliar treatment phytotoxicity, Wheat: 0
[13]; [31]
  Foliar treatment phytotoxicity, Wheat: 0
[13]; [32]
  Foliar treatment phytotoxicity, Wheat: 0
[13]; [33]
  Foliar treatment phytotoxicity, Wheat: 0
